The record followed here is article PMC12108080, “Sodium butyrate inhibits the expression of virulence factors in Vibrio cholerae by targeting ToxT protein” (mSphere, 2025).

As a reminder, the Kd is a measure of binding affinity in units of concentration. High values mean lower affinity, low ones higher affinity.

Series [1] deals with T1, ToxT (Vibrio cholerae, UniProt P0C6D6).
T1 construct: gene tcpN; 6xHis fusion from pHIS-Tev plasmid, expressed in E. coli BL21(DE3), Ni-agarose purified
As to the kind of experiment: intrinsic tryptophan fluorescence quenching, logarithmic plot. Format: binding.

Series [2] has as its target T1, ToxT. Format: binding. Particulars: 1.0 µM ToxT pre-incubated with TB (40 mM) 20 min, 1 nM PtcpA DNA, pH 7.5.
Series [3] deals with T2, ToxT (His6/NBP-ToxT fusion) (Vibrio cholerae N16961?) (UniProt P0C6D6).
T2 sequence: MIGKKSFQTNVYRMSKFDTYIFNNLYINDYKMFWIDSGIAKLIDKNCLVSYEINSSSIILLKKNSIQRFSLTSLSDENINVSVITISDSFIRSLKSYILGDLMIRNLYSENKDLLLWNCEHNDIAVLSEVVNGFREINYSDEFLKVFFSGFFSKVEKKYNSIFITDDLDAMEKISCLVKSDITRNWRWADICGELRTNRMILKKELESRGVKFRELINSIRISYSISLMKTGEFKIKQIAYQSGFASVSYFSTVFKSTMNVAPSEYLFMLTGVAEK
As to the kind of experiment: competition. Particulars: 10 mM Tris-HCl pH 7.5, 100 mM KCl, 1 mM EDTA, 1 mM DTT, 200 µg/mL BSA, 10% glycerol, […] (temperature not stated).

In turn, `CCCC(=O)O` [SB, sodium butyrate] returned a Kd at ToxT [1] of 2600 ± 30 µM.
Consider `CCCC(=O)OCC(COC(=O)CCC)OC(=O)CCC` [TB, tributyrate], for which the “inhibition of DNA binding” value on ToxT [2] is “tributyrate (TB), was used, and it showed no inhibition on ToxT-DNA binding”.
As for “ATTGCTGAGCTAAAGGGGCTGGAAATTCAATGTCATCAGGCTGTTGCCAAGTGACGCGATTCAGTGCGGCTAAATAGAGCGAAGTTAATTGATTCATACTATTATTCAATTTGACGCTTTACCCGATTACCCTAGCTACCTGCAATACCA (double strand) [nonspecific competitor DNA]”, the binding entry in series [3] is recorded as “no binding”.
